Experimental data published in patent publication US8629168B2, “Benzoxazoles and oxazolopyridines being useful as janus kinases inhibitors” (priority 2006, dated 2014).

Biological target: T1, GST-JAK2(808-1132) (Homo sapiens, UniProt O60674)
T1 construct: GST-JAK2(808-1132) is purchased from Invitrogen; purchased Invitrogen (Carlsbad, USA) #4288
Assay: EPK JAK/TYK-kinase family profiling assay (Caliper mobility shift), JAK2
Type: biochemical
Conditions: Caliper mobility shift assay of Example 187, 20 μM ATP, read-out: IC50 with Test in present Example
Source text: All four kinases of the JAK/TYK-kinase family are used as purified recombinant GST-fusion proteins, containing the active kinase domains. GST-JAK1(866-1154), GST-JAK3(811-1124), and GST-TYK2(888-1187) are expressed and purified by affinity chromatography. GST-JAK2(808-1132) is purchased from Invitrogen (Carlsbad, USA, #4288).
The kinase assays are based on the Caliper mobility shift assay using the LabChip 3000 systems. This technology is similar to capillary electrophoresis and uses charge driven separation of substrate and product in a microfluidic chip.
All kinase reactions are performed in 384 well microtiter plates in a total reaction volume of 18 μl. The assay plates are prepared with 0.1 μl per well of test compound in the appropriate test concentration, as described under the section “preparation of compound dilutions”. The reactions are started by combining 9 μl of substrate mix (consisting of peptide and ATP) with 9 μl of kinase dilution. The reactions are incubated for 60 minutes at 30° C. and stopped by adding 70 μl of stop buffer (100 mM Hepes, 5% DMSO, 0.1% Coating reagent, 10 mM EDTA, 0.015% Brij 35).
Fluorescently labeled synthetic peptides are used as substrates in all reactions. […] Specific assay conditions are described in Table 1:
The terminated reactions are transferred to a Caliper LabChip 3000 reader (Caliper Life Sciences, Mountain View, Calif., USA) and the turnover of each reaction is measured by determining the substrate/product ratio.
Test compounds are dissolved in DMSO (10 mM) and transferred into 1.4 mL flat bottom or V-shaped Matrix tubes carrying a unique 2D matrix chip by individual compound hubs. The numbers of these chips are distinctively linked to the individual compound identification numbers. The stock solutions are stored at −20° C. if not used immediately. For the test procedure the vials are defrosted and identified by a scanner whereby a working sheet is generated that guides the subsequent working steps.
Compound dilutions are made in 96 well plates. This format enabled the assay of maximally 40 individual test compounds at 8 concentrations (single points) including 4 reference compounds. The dilution protocol includes the production of pre-dilution plates, master plates and assay plates:
Pre-dilution plates: 96 polypropylene well plates are used as pre-dilution plates. A total of 4 pre-dilution plates are prepared including 10 test compounds each on the plate positions A1-A10, one standard compound at A11 and one DMSO control at A12. All dilution steps are done on a Hamilton STAR robot (Hamilton, Co., Reno, Nev., USA).
Master plates: 100 μL of individual compound dilutions including standard compound and controls of the 4 “pre-dilution plates” are transferred into a 384 “master plate” including the following concentrations 1,820, […], 182, 54.6, 18.2, 5.46, 1.82 and 0.546 μM, respectively in 90% of DMSO.
Assay plates: Identical assay plates are then prepared by pipetting 100 nL each of compound dilutions of the master plates into 384-well “assay plates”. In the following the compounds are mixed with 9 μL of assays components plus 9 μL enzyme corresponding to a 1:181 dilution steps enabling the final concentration of 10, 3.0, 1.0, 0.3, 0.1, 0.03, 0.01 and 0.003 μM, respectively. The preparation of the master plates are handled by the Matrix PlateMate Plus robot (Thermo Fisher Scientific, Handforth, Cheshire, United Kingdom) and replication of assay plates by the HummingBird robot (Genomic Solutions, Inc., Ann Arbor, Mich., USA).

T1 sequence (O60674 808-1132): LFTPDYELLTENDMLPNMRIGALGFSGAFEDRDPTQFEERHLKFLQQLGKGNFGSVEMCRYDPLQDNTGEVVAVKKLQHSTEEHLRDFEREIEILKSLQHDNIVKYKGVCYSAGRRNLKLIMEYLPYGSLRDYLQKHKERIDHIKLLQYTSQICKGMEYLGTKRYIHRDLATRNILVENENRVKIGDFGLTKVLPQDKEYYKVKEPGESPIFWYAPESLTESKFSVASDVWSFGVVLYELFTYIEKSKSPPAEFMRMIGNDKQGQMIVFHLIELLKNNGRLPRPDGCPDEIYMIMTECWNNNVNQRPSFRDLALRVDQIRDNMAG

| IC50 [nM] | SMILES |
| --- | --- |
| 270 | CS(=O)(=O)c1ccc(-c2cccc3nc(Nc4ccc(N5CCN(C6CC6)CC5)cc4)oc23)cc1 [Example 113, [4-(4-Cyclopropyl-piperazin-1-yl)-phenyl]-[7-(4-methanesulfonyl-phenyl)-benzooxazol-2-yl]-amine] |
| 14.1 | O=S1(=O)CCN(Cc2c(F)cc(-c3cccc4nc(Nc5ccc(N6CCN(C7CC7)CC6)cc5)oc34)cc2F)CC1 [Example 114, [4-(4-Cyclopropyl-piperazin-1-yl)-phenyl]-{7-[4-(1,1-dioxo-1lambda*6*-thiomorpholin-4-ylmethyl)-3,5-difluoro-phenyl]-benzooxazol-2-yl}-amine] |
| 39 | COCCN1CCN(c2ccc(Nc3nc4cccc(-c5ccc(S(C)(=O)=O)cc5)c4o3)cc2C)CC1 [Example 115, [7-(4-Methanesulfonyl-phenyl)-benzooxazol-2-yl]-{4-[4-(2-methoxy-ethyl)-piperazin-1-yl]-3-methyl-phenyl}-amine] |
| 15 | CCN1CCN(c2ccc(Nc3nc4cccc(-c5ccc(C(=O)N6CCS(=O)(=O)CC6)cc5)c4o3)cc2C)CC1 [Example 116, (1,1-Dioxo-1lambda*6*-thiomorpholin-4-yl)-(4-{2-[4-(4-ethyl-piperazin-1-yl)-3-methyl-phenylamino]-benzooxazol-7-yl}-phenyl)-methanone] |
| 29.5 | CCN(CC)C(=O)c1ccc(Nc2nc3cccc(-c4cc(F)c(CN5CCN(C(C)=O)CC5)c(F)c4)c3o2)cc1C [Example 117, 4-{7-[4-(4-Acetyl-piperazin-1-ylmethyl)-3,5-difluoro-phenyl]-benzooxazol-2-ylamino}-N,N-diethyl-2-methyl-benzamide] |
| 43 | CCN(CC)C(=O)c1ccc(Nc2nc3cccc(-c4cc(F)c(CN5CCNCC5)c(F)c4)c3o2)cc1C [Example 118, 4-[7-(3,5-Difluoro-4-piperazin-1-ylmethyl-phenyl)-benzooxazol-2-ylamino]-N,N-diethyl-2-methyl-benzamide] |
| 19.5 | CCN1CCN(Cc2ccc(Nc3nc4cccc(-c5ccc(C(=O)N6CCOCC6)c(F)c5)c4o3)cc2C)CC1 [Example 119, (4-{2-[4-(4-Ethyl-piperazin-1-ylmethyl)-3-methyl-phenylamino]-benzooxazol-7-yl}-2-fluoro-phenyl)-morpholin-4-yl-methanone] |
| 39 | CNC(=O)c1ccc(Nc2nc3cccc(-c4cc(F)c(CN5CCOCC5)c(F)c4)c3o2)cc1C [Example 120, 4-[7-(3,5-Difluoro-4-morpholin-4-ylmethyl-phenyl)-benzooxazol-2-ylamino]-2,N-dimethyl-benzamide] |
| 210 | Cc1cc(Nc2nc3cccc(-c4cc(F)c(CN5CCOCC5)c(F)c4)c3o2)ccc1N1CCN(CCC(F)(F)F)CC1 [Example 121] |
| 11.1 | Cc1cc(Nc2nc3cccc(-c4cc(F)c(CN5CCOCC5)c(F)c4)c3o2)ccc1C(=O)NCCN(C)C [Example 122, 4-[7-(3,5-Difluoro-4-morpholin-4-ylmethyl-phenyl)-benzooxazol-2-ylamino]-N-(2-dimethylamino-ethyl)-2-methyl-benzamide] |
| 5.4 | CCN(CC)C(=O)c1ccc(Nc2nc3cccc(-c4ccc(CC(=O)N5CCS(=O)(=O)CC5)cc4)c3o2)cc1OC [Example 123, 4-(7-{4-[2-(1,1-Dioxo-1lambda*6*-thiomorpholin-4-yl)-2-oxo-ethyl]-phenyl}-benzooxazol-2-ylamino)-N,N-diethyl-2-methoxy-benzamide] |
| 5.2 | CS(=O)(=O)c1ccc(Nc2nc3cccc(-c4ccc(CC(=O)N5CCOCC5)cc4)c3o2)cc1 [Example 124, 2-{4-[2-(4-Methanesulfonyl-phenylamino)-benzooxazol-7-yl]-phenyl}-1-morpholin-4-yl-ethanone] |
| 70.5 | O=C1CCCN1c1ccc(Nc2nc3cccc(-c4cc(F)c(CN5CCS(=O)(=O)CC5)c(F)c4)c3o2)cc1 [Example 125, 1-(4-{7-[4-(1,1-Dioxo-1lambda*6*-thiomorpholin-4-ylmethyl)-3,5-difluoro-phenyl]-benzooxazol-2-ylamino}-phenyl)-pyrrolidin-2-one] |
| 165 | O=C1CCCN1c1ccc(Nc2nc3cccc(-c4cc(F)c(CN5CCOCC5)c(F)c4)c3o2)cc1 [Example 126, 1-{4-[7-(3,5-Difluoro-4-morpholin-4-ylmethyl-phenyl)-benzooxazol-2-ylamino]-phenyl}-pyrrolidin-2-one] |
| 30 | COc1ccc(Nc2nc3cccc(-c4ccc(C(=O)N5CCOCC5)c(C)c4)c3o2)cc1N1CCN(C)CC1 [Example 127, (4-{2-[4-Methoxy-3-(4-methyl-piperazin-1-yl)-phenylamino]-benzooxazol-7-yl}-2-methyl-phenyl)-morpholin-4-yl-methanone] |
| 19 | CN1CCN(c2cccc(Nc3nc4cccc(-c5cc(F)c(CN6CCS(=O)(=O)CC6)c(F)c5)c4o3)c2)CC1 [Example 128, {7-[4-(1,1-Dioxo-1lambda*6*-thiomorpholin-4-ylmethyl)-3,5-difluoro-phenyl]-benzooxazol-2-yl}-[3-(4-methyl-piperazin-1-yl)-phenyl]-amine] |
| 45 | Cc1cc(-c2cccc3nc(Nc4cccc(N5CCN(C)CC5)c4)oc23)ccc1C(=O)N1CCOCC1 [Example 129, (2-Methyl-4-{2-[3-(4-methyl-piperazin-1-yl)-phenylamino]-benzooxazol-7-yl}-phenyl)-morpholin-4-yl-methanone] |
| 6.55 | COc1ccc(Nc2nc3cccc(-c4cc(F)c(CN5CCS(=O)(=O)CC5)c(F)c4)c3o2)cc1N1CCN(C)CC1 [Example 130, {7-[4-(1,1-Dioxo-1lambda*6*-thiomorpholin-4-ylmethyl)-3,5-difluoro-phenyl]-benzooxazol-2-yl}-[4-methoxy-3-(4-methyl-piperazin-1-yl)-phenyl]-amine] |
| 19.5 | Cc1cc(Nc2nc3cccc(-c4ccc(C(=O)N5CCOCC5)c(F)c4)c3o2)ccc1CN1CCOCC1 [Example 131, {2-Fluoro-4-[2-(3-methyl-4-morpholin-4-ylmethyl-phenylamino)-benzooxazol-7-yl]-phenyl}-morpholin-4-yl-methanone] |
| 21 | CC(=O)NC1Cc2ccc(Nc3nc4cccc(-c5ccc(CN6CCOCC6)c(F)c5)c4o3)cc2C1 (centres unmarked) [Example 132, N-{5-[7-(3-Fluoro-4-morpholin-4-ylmethyl-phenyl)-benzooxazol-2-ylamino]-indan-2-yl}-acetamide] |
| 14 | CC(=O)NC1Cc2ccc(Nc3nc4cccc(-c5ccc(CN6CCS(=O)(=O)CC6)cc5)c4o3)cc2C1 (centres unmarked) [Example 133, N-(5-{7-[4-(1,1-Dioxo-1lambda*6*-thiomorpholin-4-ylmethyl)-phenyl]-benzooxazol-2-ylamino}-indan-2-yl)-acetamide] |
| 98 | O=C1Cc2cc(Nc3nc4cccc(-c5cc(F)c(CN6CCOCC6)c(F)c5)c4o3)ccc2N1 [Example 134, 5-[7-(3,5-Difluoro-4-morpholin-4-ylmethyl-phenyl)-benzooxazol-2-ylamino]-1,3-dihydro-indol-2-one] |
| 18 | C[S+]([O-])c1ccc(Nc2nc3cccc(-c4ccc(CC(=O)N5CCOCC5)cc4)c3o2)cc1 (centres unmarked) [Example 135, 2-{4-[2-(4-Methanesulfinyl-phenylamino)-benzooxazol-7-yl]-phenyl}-1-morpholin-4-yl-ethanone] |
| 18 | COc1cc(Nc2nc3cccc(-c4ccc(Cn5ccnc5)cc4)c3o2)cc(OC)c1OC [Example 136, [7-(4-Imidazol-1-ylmethyl-phenyl)-benzooxazol-2-yl]-(3,4,5-trimethoxy-phenyl)-amine] |
| 160 | COc1cc(Nc2nc3cccc(-c4ccc(CN5CCN(C)CC5)cc4)c3o2)cc(OC)c1OC [Example 137] |
| 14 | COc1cc(Nc2nc3cccc(-c4ccc(CN5CCOCC5)cc4)c3o2)cc(OC)c1OC [Example 138, [7-(4-Morpholin-4-ylmethyl-phenyl)-benzooxazol-2-yl]-(3,4,5-trimethoxy-phenyl)-amine] |
